Patent US20240059740A1, “CYCLIC PEPTIDES AND USES THEREOF” (PRE[…] INC., priority 2020, published 2024)
Residues, ends and D or L forms follow the SMILES beside them.

Columns and labels:
Assay type in all cases: cell-based, human
U251 cells = assay: MTT assay for cytotoxicity, U251; details: 48 hours, % viability of control
From the text: The MTT (3-[4.5-dimethylthiazol-2-yl]-2,5═diphenyl tetrazolium bromide) assay is based on a process undertaken by living cells, involving the conversion of MTT into formazan crystals. This assay is used routinely to measure the in vitro cytotoxic effects of drugs on cell lines or primary patient cells (Van Meerloo et al., 2011). The MTT assay measures mitochondrial activity, so in some instances where the peptide activates mitochondrial response, the results appear to increase the number of cells present i.e. >100% cell viability.
The aim of this experiment was to identify peptide concentrations that are active on living cells and cell viability was assessed.
The glioblastoma multiforme (GBM) cell lines used were U87 and U251 cells and patient derived cells grown as oncospheres (081024 cells). Human adherent GBM cell lines U87 and U251 were cultured in RPMI medium (Life Technologies Melbourne Australia) supplemented with 5% v/v FBS, 100 U/mL penicillin and 100 μg/mL streptomycin. 081024 cells were cultrured in NeuroCult™ NS-A Proliferation medium with 0.2% (v/v) heparin, 20 ng/mL EGF and 10 ng/mL FGF.
8×10^3 U87 and 7×10^3 U251 cells per well were seeded in 96 well plates in 200 μL serum-containing RPMI medium and incubated at 37° C. with 5% CO2 for 24 hours. After one wash with serum-free medium, 100 μL serum-free medium with different concentration of peptide SEQ ID NO:1 was added to each well. After 48 hours incubation, 10 μL of 0.5 mg/mL MTT was added and incubated for 2 hours at 37° C. Formazan crystals were dissolved by 200 μL/well dimethyl sulfoxide (DMSO) and shaking for 15 minutes. The UV absorbance was read with an iMark™ microplate absorbance reader at 595 nm (Bio-Rad Laboratories). Background absorbance was subtracted and results expressed as the % viability of control (untreated cells).

uPA (PLAU) mRNA = assay: Real time RT-PCR, uPA mRNA expression
From the text: (§1) The real-time reverse transcription polymerase chain reaction (RT-PCR) uses fluorescent reporter molecules to monitor the production of amplification products during each cycle of the PCR reaction. This combines the nucleic acid amplification and detection steps into one homogeneous assay and use of appropriate chemistries and data analysis eliminates the need for Southern blotting or DNA sequencing for amplicon identification. Its simplicity, specificity and sensitivity, together with its potential for high throughput and the ongoing introduction of new chemistries, more reliable instrumentation and improved protocols, has made real-time RT-PCR the benchmark technology for the detection and/or comparison of RNA levels.’
(§2) In order to detect and quantify the expression of specific genes at mRNA level, real-time reverse transcriptase polymerase chain reaction (Real time RT-PCR) was performed. Total RNA of samples was isolated and purified using the PureLink® RNA Mini Kit (Life technologies). The concentration of total RNA was detected by NanoDrop 2000 Spectrophotometer (Thermo Scientific). The total RNA (2000 ng) was reverse transcribed using the High-Capacity cDNA Reverse Transcription Kit (Applied Biosystems™).
(§3) The primers of target genes were TaqMan™ Gene Expression Assay for human PLAU (Hs01547054_m1), MMP-2 (Hs01548727_m1), MMP-9 (Hs00957562_m1), Snail-1 (Hs00195591_m1), Snail-2 (Hs00161904_m1), N-cadherin (Hs00983056_m1) and Twist (Hs01675818_s1). Relative quantification was done by reference to 18S ribosomal RNA (18S rRNA) and analysed using the comparative critical threshold (Ct) method
(§4) The mRNA expression of MMPs was measured using qRT-PCR. This was tested three independent times; the results are shown in Tables 9, 10 and 11 for U251, U87 cells and O81024 cells respectively. Results are reported as percent of the control cells (no treatment). Both MMP-2 and uPA were decreased in U251 by SEQ ID NO.1.

MMP-2 mRNA = assay: Real time RT-PCR, MMP-2 mRNA expression
From the text: as §1, §2, §3, §4

081024 cells = assay: BME cell invasion assay, 081024; details: 24 h
Experimental: To assess whether the ability of SEQ ID NO.1 to inhibit MMP-2 activity and, to a lesser extent, reduce the production of matrix proteinases and downregulate the expression of EMT markers, was of functional consequence in reducing the invasiveness of the GBM cells, the ability of the peptide was tested at the concentrations of 1, 10 and 100 μM (none of which are toxic to cells) to inhibit invasion of the GBM cells through a basement membrane. This assay, described in more detail below, is an in vitro surrogate for measurement of the in vivo invasion by tumour cells of their environment.
The cell invasion assay employs a simplified Boyden chamber-like design that consists of two chambers separated by a filter (an 8 μm polycarbonate (PC) membrane) coated with basement membrane or different extracellular matrix components. The cell suspension is placed in the top chamber and incubated in the presence of test media containing specific chemo-attractants in the bottom chamber. Cells migrate from the top chamber to the bottom of the filter by degrading the coating over the filter pores. Detection of cell invasion is quantified using Calcein AM. Cell dissociation/Calcein AM solution is placed in the bottom chamber to dissociate the migrating cells from the filter. Calcein AM is internalized by the cells, and intracellular-esterases cleave the aceto-methylester (AM) moiety. Free Calcein fluoresces brightly and is used to quantitate the number of cells that have invaded or migrated by comparison with a standard curve (In Vitro Technologies Pty Ltd, (https://lifescience.invitro.com.au/brands/r-and-d-systems/).
The filter was coated with PathClear® growth factor reduced BME. The selected peptides were applied to the cells in both upper and lower wells to make sure the concentration of peptides were the same and the chemoattractant was serum at a concentration of 2% (for adherent U87 & U251 cells) or growth factor mix required in the medium (for non- adherent, 081024 oncospheres).
Cell invasion was determined using CultureCoat® 96 Well Medium BME Cell Invasion assay. Briefly, the cells were pre-starved 24 h before harvest. Then seeding 25,000 per well of cell in the upper chamber with serum free medium together different concentration of peptide. The bottom chamber also added different concentration of peptides with 2% (V/V) serum for GBM adherent cells or growth factor mix for neurosphere cells as chemoattractant. After 24 h incubation, the invading cells were measured by Calcein AM and calculated based on standard curve.
The results are shown in Table 12, the results are expressed as % inhibition.

[1] = 081024 cells, baseline expression level = 1
[2] = U87 cells, baseline expression level = 1

Which results are given for CC(C)C[C@@H]1NC(=O)[C@H](C)NC(=O)[C@@H](NC(=O)[C@@H]2CCCN2C(=O)[C@@H](N)CC(C)C)CSSC(C)(C)CNC(=O)CC[C@@H](C(=O)N[C@@H](CCCNC(=N)N)C(N)=O)NC(=O)[C@H](CC(=O)O)NC(=O)[C@H](CC(N)=O)NC1=O [SEQ ID NO: 1, Leu-Pro-c(SSA*-Ala-Leu-Asn-Asp-Glu)-Arg-NH2] (HELM PEPTIDE1{L.P.C.A.L.N.D.E.R.[am]}|CHEM1{[CC(C)(CN[*:2])S[*:1]]}$PEPTIDE1,CHEM1,3:R3-1:R1|PEPTIDE1,CHEM1,8:R3-1:R2$$$V2.0; N-terminus assumed)?
Cell viability (U251 cells; 1 μM): 100.7%; Cell viability (U251 cells; 5 μM): 101.7%; Cell viability (U251 cells; 10 μM): 100.4%; Cell viability (U251 cells; 50 μM): 107.3%; Cell viability (U251 cells; 100 μM): 105.5%; Cell viability (U251 cells; 500 μM): 93.84%; Cell viability (U251 cells; 1 mM): 83.99%; mRNA expression, uPA (uPA (PLAU) mRNA; [1]): 0.85; mRNA expression, uPA (uPA (PLAU) mRNA; [2]): 1.19; mRNA expression, uPA (uPA (PLAU) mRNA; U251 cells, relative to control (no treatment), 18S rRNA reference, listed as SEQ ID NO. 1): 0.63; mRNA expression, uPA (uPA (PLAU) mRNA; U251 cells, relative to control (no treatment), 18S rRNA reference, listed as SEQ ID NO.1): decreased; mRNA expression, MMP-2 (MMP-2 mRNA; [1]): 0.91; mRNA expression, MMP-2 (MMP-2 mRNA; [2]): 0.84; mRNA expression, MMP-2 (MMP-2 mRNA; U251 cells, relative to control (no treatment), listed as SEQ ID NO. 1): 0.72; mRNA expression, MMP-2 (MMP-2 mRNA; U251 cells, relative to control (no treatment), listed as SEQ ID NO.1): decreased; Invasion Inhibition Index (%) (081024 cells; 1 μM, listed as SEQ ID NO. 1): 39.9%; Invasion Inhibition Index (%) (081024 cells; 1 μM, listed as SEQ ID NO.1): fairly comparable to that of Chlorotoxin; Invasion Inhibition Index (%) (081024 cells; 10 μM): 50.8%; Invasion Inhibition Index (%) (081024 cells; 100 μM): 58.3%
